In patent US10106556B2, “Heterocyclic compound” (TAKEDA PHARMACEUTICAL COMPANY LIMITED, priority 2015, dated 2018) one finds inhibition data, which are given here for 24 compounds.

For this experiment, the target named is T1, His-hMAGL (recombinant polyhistidine tagged human MAGL protein) (Homo sapiens, UniProt Q99685).
T1 construct: made in house; host or cells: E. coli BL21(DE3)
T1 sequence (Q99685 1-303): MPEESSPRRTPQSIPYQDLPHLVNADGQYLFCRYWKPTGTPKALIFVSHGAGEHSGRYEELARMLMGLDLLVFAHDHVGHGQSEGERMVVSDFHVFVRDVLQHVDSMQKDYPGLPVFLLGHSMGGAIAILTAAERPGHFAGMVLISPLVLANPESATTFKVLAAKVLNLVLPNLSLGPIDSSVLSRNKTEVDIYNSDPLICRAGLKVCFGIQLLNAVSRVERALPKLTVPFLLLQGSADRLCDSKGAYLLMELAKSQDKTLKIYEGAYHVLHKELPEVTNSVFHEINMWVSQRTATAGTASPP
Nature of the experiment: Measurement of MAGL inhibitory activity (arachidonic acid production from 2-arachidonylglycerol, RapidFire-mass spectrometry). It counts as biochemical. The settings on record: MAGL inhibitory rate at 10 μM test compound; 60 min preincubation with His-hMAGL, 2-arachidonylglycerol substrate, 10 min reaction at room temperature. The method, boiled down: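 Inhibition (%) was derived from arachidonic acid levels relative to enzyme-free and compound-free groups. Product was measured by online C4 solid-phase extraction and triple-quadrupole MS in negative SRM mode, corrected by arachidonic acid-d8 (3 μM in the acetonitrile added). Substrate was 2-arachidonylglycerol; enzyme was His-tagged recombinant human MAGL.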
In general, inhibition refers to the drop in the measured response relative to a control, in per cent. Regarding `O=C1COc2cc(F)c(C(=O)N3CC(COc4cc(F)ccc4Cl)C3)cc2N1` [Example 132, 6-((3-((2-chloro-5-fluorophenoxy)methyl)azetidin-1-yl)carbonyl)-7-fluoro-2H-1,4-benzoxazin-3(4H)-one], the inhibition at 10 µM stood at 99%. On to `N#Cc1cc(OCC2CN(C(=O)c3cc4c(cc3F)OCC(=O)N4)C2)ccc1Cl` [Example 133, 2-chloro-5-((1-((7-fluoro-3-oxo-3,4-dihydro-2H-1,4-benzoxazin-6-yl)carbonyl)azetidin-3-yl)methoxy)benzonitrile], for which the inhibition at 10 µM stood at 98%. Regarding `O=C1COc2cc(F)c(C(=O)N3CC(COc4cc(F)cc(Cl)c4)C3)cc2N1` [Example 134, 6-((3-((3-chloro-5-fluorophenoxy)methyl)azetidin-1-yl)carbonyl)-7-fluoro-2H-1,4-benzoxazin-3(4H)-one], the inhibition at 10 µM was 102%. Next, `O=C1COc2cc(F)c(C(=O)N3CC(COc4cccc(Cl)c4F)C3)cc2N1` [Example 135, 6-((3-((3-chloro-2-fluorophenoxy)methyl)azetidin-1-yl)carbonyl)-7-fluoro-2H-1,4-benzoxazin-3(4H)-one]: 101%; `O=C1COc2cc(F)c(C(=O)N3CC(COc4c(F)cccc4Cl)C3)cc2N1` [Example 136, 6-((3-((2-chloro-6-fluorophenoxy)methyl)azetidin-1-yl)carbonyl)-7-fluoro-2H-1,4-benzoxazin-3(4H)-one]: 98%; `N#Cc1ccc(Cl)cc1OCC1CN(C(=O)c2cc3c(cc2F)OCC(=O)N3)C1` [Example 137, 4-chloro-2-((1-((7-fluoro-3-oxo-3,4-dihydro-2H-1,4-benzoxazin-6-yl)carbonyl)azetidin-3-yl)methoxy)benzonitrile]: 99%. Next, `N#Cc1ccc(OCC2CN(C(=O)c3cc4c(cc3F)OCC(=O)N4)C2)cc1Cl` [Example 138, 2-chloro-4-((1-((7-fluoro-3-oxo-3,4-dihydro-2H-1,4-benzoxazin-6-yl)carbonyl)azetidin-3-yl)methoxy)benzonitrile]: 100%. For `O=C1COc2cc(F)c(C(=O)N3CC(COc4cccc5nccnc45)C3)cc2N1` [Example 139, 7-fluoro-6-((3-((quinoxalin-5-yloxy)methyl)azetidin-1-yl)carbonyl)-2H-1,4-benzoxazin-3(4H)-one], the inhibition at 10 µM was 92%. As for `O=C1COc2cc(F)c(C(=O)N3CC(COc4ccccc4)C3)cc2N1` [Example 140, 7-fluoro-6-((3-(phenoxymethyl)azetidin-1-yl)carbonyl)-2H-1,4-benzoxazin-3(4H)-one], the inhibition at 10 µM was 100%. In the case of `Cc1ccc(OCC2CN(C(=O)c3cc4c(cc3F)OCC(=O)N4)C2)c(C)n1` [Example 141, 6-((3-(((2,6-dimethylpyridin-3-yl)oxy)methyl)azetidin-1-yl)carbonyl)-7-fluoro-2H-1,4-benzoxazin-3(4H)-one] it was 102%; in that of `Cc1cc(C)c(OCC2CN(C(=O)c3cc4c(cc3F)OCC(=O)N4)C2)cn1` [Example 142, 6-((3-(((4,6-dimethylpyridin-3-yl)oxy)methyl)azetidin-1-yl)carbonyl)-7-fluoro-2H-1,4-benzoxazin-3(4H)-one], 102%; in that of `O=C1COc2cc(F)c(C(=O)N3CC(COc4ccc(OC(F)(F)F)cc4)C3)cc2N1` [Example 143, 7-fluoro-6-((3-((4-(trifluoromethoxy)phenoxy)methyl)azetidin-1-yl)carbonyl)-2H-1,4-benzoxazin-3(4H)-one], 100%. In the case of `O=C1COc2cnc(C(=O)N3CCC(COc4ccc(C(F)(F)F)cc4Cl)CC3)cc2N1` [Example 144, 7-((4-((2-chloro-4-(trifluoromethyl)phenoxy)methyl)piperidin-1-yl)carbonyl)-1H-pyrido[3,4-b][1,4]oxazin-2(3H)-one] it was 98%. Next, `Cc1nc2c(cc1C(=O)N1CCC(COc3ccc(F)cc3Cl)CC1)NC(=O)CO2` [Example 145, 7-((4-((2-chloro-4-fluorophenoxy)methyl)piperidin-1-yl)carbonyl)-6-methyl-1H-pyrido[2,3-b][1,4]oxazin-2(3H)-one]: 88%; `CC(C)(C)c1ccccc1OCC1CN(C(=O)c2ccc3c(c2)NC(=O)CO3)C1` [Example 146, 6-((3-((2-tert-butylphenoxy)methyl)azetidin-1-yl)carbonyl)-2H-1,4-benzoxazin-3(4H)-one]: 97%. Consider `O=C1COc2cc(F)c(C(=O)N3CC(COCc4ccc(Cl)cc4)C3)cc2N1` [Example 147, 6-((3-(((4-chlorobenzyl)oxy)methyl)azetidin-1-yl)carbonyl)-7-fluoro-2H-1,4-benzoxazin-3(4H)-one], for which the inhibition at 10 µM was 102%. In the case of `O=C1COc2cc(F)c(C(=O)N3CC(COCc4ccccc4Cl)C3)cc2N1` [Example 148, 6-((3-(((2-chlorobenzyl)oxy)methyl)azetidin-1-yl)carbonyl)-7-fluoro-2H-1,4-benzoxazin-3(4H)-one], the inhibition at 10 µM turned out to be 102%.

As to `O=C1COc2cc(F)c(C(=O)N3CCC(COc4ccc(-c5ccccc5)cc4)CC3)cc2N1` [Example 149, 6-((4-((biphenyl-4-yloxy)methyl)piperidin-1-yl)carbonyl)-7-fluoro-2H-1,4-benzoxazin-3(4H)-one], the inhibition at 10 µM is 85%. Consider `O=C1COc2cc(F)c(C(=O)N3CCC(COc4cccc(-c5ccccc5)c4)CC3)cc2N1` [Example 150, 6-((4-((biphenyl-3-yloxy)methyl)piperidin-1-yl)carbonyl)-7-fluoro-2H-1,4-benzoxazin-3(4H)-one], for which the inhibition at 10 µM turned out to be 100%.

Turning to `Cc1nc2cc(OCC3CN(C(=O)c4cc5c(cc4F)OCC(=O)N5)C3)ccc2s1` [Example 151, 7-fluoro-6-((3-(((2-methyl-1,3-benzothiazol-5-yl)oxy)methyl)azetidin-1-yl)carbonyl)-2H-1,4-benzoxazin-3(4H)-one], the inhibition at 10 µM was found to be 92%. `Cc1nc2ccc(OCC3CN(C(=O)c4cc5c(cc4F)OCC(=O)N5)C3)cc2s1` [Example 152, 7-fluoro-6-((3-(((2-methyl-1,3-benzothiazol-6-yl)oxy)methyl)azetidin-1-yl)carbonyl)-2H-1,4-benzoxazin-3(4H)-one]: the inhibition at 10 µM turned out to be 101%. On to `Cc1nc2ccc(OCC3CN(C(=O)c4cc5c(cc4F)OCC(=O)N5)C3)cc2o1` [Example 153, 7-fluoro-6-((3-(((2-methyl-1,3-benzoxazol-6-yl)oxy)methyl)azetidin-1-yl)carbonyl)-2H-1,4-benzoxazin-3(4H)-one], for which the inhibition at 10 µM came out at 100%.

On to `O=C1COc2cc(F)c(C(=O)N3CC(COc4ccc5c(c4)CCC5)C3)cc2N1` [Example 154, 6-((3-((2,3-dihydro-1H-inden-5-yloxy)methyl)azetidin-1-yl)carbonyl)-7-fluoro-2H-1,4-benzoxazin-3(4H)-one], for which the inhibition at 10 µM is 95%. For the compound `O=C1COc2cc(F)c(C(=O)N3CC(COc4ccc5c(c4)CCO5)C3)cc2N1` [Example 155, 6-((3-((2,3-dihydro-1-benzofuran-5-yloxy)methyl)azetidin-1-yl)carbonyl)-7-fluoro-2H-1,4-benzoxazin-3(4H)-one], the inhibition at 10 µM is 101%.
